In publication PMC4401096 (Scientific Reports, 2015):
Like-named read-outs stand apart in the source and are kept apart here.

Key:
[1] = Species comparison of DACB glucuronidation in animal liver microsomes; type: in vitro ADME
[2] = HLMs
Description: (§1) The standard incubation system for the UGT reaction included HLMs (5 mg of protein/mL), UDPGA (40 mM), Tris-HCl buffer (pH 7.4), MgCl2 (50 mM), 25 μg/mL alamethicin, and substrates in a final volume of 200 μL. The volume of organic solvent was less than 1%. After 60 min of incubation at 37°C, the reaction was terminated by adding 0.1 mL of methanol. The sample was then centrifuged at 20,000 g for 20 minutes to obtain the supernatant for LC-UV-ESI analysis.
(§2) To ensure that less than 10% of the substrate was metabolized in all incubations, different incubation times and protein concentration conditions were selected with 60 min of incubation and 0.15 to 0.75 mg of protein, to confirm the linear interval of metabolite turnover rates. The kinetic models used for analysis were Michaelis–Menten kinetics (eq. 1), biphasic kinetics (eq. 2) and inhibition kinetics (eq. 3)[32]. [drawing 1] [drawing 2] […] Ksi is the constant describing the substrate inhibition interaction. All of the incubations were performed in three independent experiments in duplicate. Kinetic constants were obtained using Origin 7.5 (OriginLab Corp., Northampton, MA) and were reported as the mean ± standard error (S.E.) of the parameter estimate.

[3] = M-2 (16-O-glucuronidation), HIMs
Description: as §1, §2

[4] = RLMs
Description: as §1, §2

[5] = MLMs
Description: as §1, §2

[6] = DLMs
Description: as §1, §2

[7] = 3-O-Glucuronide (M-1), TLMs
Description: as §1, §2

[8] = 16-O-Glucuronide (M-2), PLMs
UGT1A4 = molecular target: T1, UGT1A4 (Homo sapiens, UniProt P22310)
T1 sequence (P22310 29-534): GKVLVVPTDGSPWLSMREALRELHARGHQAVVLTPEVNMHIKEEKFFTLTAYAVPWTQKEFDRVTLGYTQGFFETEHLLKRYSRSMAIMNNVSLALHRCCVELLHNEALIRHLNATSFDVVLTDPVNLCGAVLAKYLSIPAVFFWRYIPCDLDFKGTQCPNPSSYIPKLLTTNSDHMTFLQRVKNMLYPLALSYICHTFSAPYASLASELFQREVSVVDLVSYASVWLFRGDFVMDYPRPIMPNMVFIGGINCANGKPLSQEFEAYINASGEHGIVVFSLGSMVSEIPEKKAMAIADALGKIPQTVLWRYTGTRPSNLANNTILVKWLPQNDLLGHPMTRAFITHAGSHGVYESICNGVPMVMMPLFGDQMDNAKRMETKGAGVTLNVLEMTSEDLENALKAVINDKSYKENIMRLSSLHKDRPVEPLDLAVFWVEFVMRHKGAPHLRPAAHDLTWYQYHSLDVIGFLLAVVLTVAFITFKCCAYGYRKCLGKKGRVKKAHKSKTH
Description: (§3) All of the incubations were performed for 60 min using HLMs with a concentration of 0.3 mg of protein/mL, 0.05 mg of protein/mL for UGT1A3 and 0.25 mg of protein/mL for UGT1A4. Similarly, for the UGT1A4 isoform, hecogenin (1–80 μM) was used as a specific inhibitor to determine the differences of inhibition effects between HLMs and UGT1A4.

UGT1A3 = molecular target: T2, UGT1A3 (Homo sapiens, UniProt P35503)
T2 sequence (P35503 29-534): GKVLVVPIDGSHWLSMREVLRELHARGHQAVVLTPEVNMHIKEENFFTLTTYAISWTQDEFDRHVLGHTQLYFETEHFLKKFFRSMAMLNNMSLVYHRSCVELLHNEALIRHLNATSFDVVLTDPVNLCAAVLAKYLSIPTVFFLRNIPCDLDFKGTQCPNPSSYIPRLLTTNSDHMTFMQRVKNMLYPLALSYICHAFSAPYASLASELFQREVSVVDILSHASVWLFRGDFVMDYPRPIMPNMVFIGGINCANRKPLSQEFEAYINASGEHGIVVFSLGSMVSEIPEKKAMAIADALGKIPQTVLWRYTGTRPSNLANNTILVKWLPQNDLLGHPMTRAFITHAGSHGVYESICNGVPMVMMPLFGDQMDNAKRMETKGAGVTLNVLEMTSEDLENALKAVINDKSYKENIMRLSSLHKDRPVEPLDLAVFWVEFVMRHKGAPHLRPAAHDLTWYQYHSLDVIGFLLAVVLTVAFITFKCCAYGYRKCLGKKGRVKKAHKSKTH
Description: as §3

[9] = animal species liver microsomes
[10] = liver microsomes of various species

With `C[C@]12CC[C@H](O)C[C@H]1CC[C@@H]1[C@@H]2CC[C@]2(C)[C@@H](c3ccc(=O)oc3)[C@@H](O)[C@H]3O[C@]132` [DACB, desacetylcinobufagin] the “order of CLint activities of UGT1A3, M-2 formation” value [1, 9] was “MLM > RLM > PLM > DLM”, the “order of UGT1A4 activities by CLint values, M-1 formation” value [1, 9] was “Rabbit > Monkey > Mouse > Dog > Pig” and the “occurrence of 3-O-glucuronidation in species” value [1, 10] was “occurs in DLMs, MLMs, MsLMs, RLMs and TLMs”. For the same compound, the “occurrence of 16-O-glucuronidation in species” value [1, 10] was “can occur in all species except RtLMs”, the Vmax ([2]; M-1 (3-O-glucuronidation)) was 0.061 ± 0.002 nmol/min/mg and the Vmax ([2]; M-2 (16-O-glucuronidation)) was 0.074 ± 0.004 nmol/min/mg. For the same compound, the Vmax [3] was 0.007 ± 0.002 nmol/min/mg, the Vmax ([4]; 3-O-Glucuronide (M-1)) was 0.107 ± 0.002 nmol/min/mg and the Vmax ([4]; 16-O-Glucuronide (M-2)) was 0.018 ± 0.001 nmol/min/mg. The Vmax ([5]; 3-O-Glucuronide (M-1)) was 0.174 ± 0.008 nmol/min/mg, the Vmax ([5]; 16-O-Glucuronide (M-2)) was 0.288 ± 0.002 nmol/min/mg and the Vmax ([6]; 3-O-Glucuronide (M-1), biphasic kinetics, first line) was 0.005 ± 0.001 nmol/min/mg. For the same compound, the Vmax ([6]; 3-O-Glucuronide (M-1), biphasic kinetics, second line) was 0.009 ± 0.001 nmol/min/mg, the Vmax ([6]; 16-O-Glucuronide (M-2)) was 0.111 ± 0.010 nmol/min/mg and the Km [7] was 63.6 ± 5.33 µM. It also gave a Vmax [7] of 0.106 ± 0.002 nmol/min/mg and a Vmax [8] of 0.032 ± 0.001 nmol/min/mg.
With `CN1CCN(CCCN2c3ccccc3Sc3ccc(C(F)(F)F)cc32)CC1` [TFP, trifluoperazine] the “inhibition of the 3-O-glucuronidation of DACB” value (UGT1A4) was “significantly inhibit”.
In the case of `CC1(C)[C@@H](O)CC[C@]2(C)[C@H]3C(=O)C=C4[C@@H]5C[C@@](C)(C(=O)O)CC[C@]5(C)CC[C@@]4(C)[C@]3(C)CC[C@@H]12` [glycyrrhetinic acid], the “inhibition of the formation of M-2 (16-O-glucuronate)” value (UGT1A3) is reported as “significantly inhibited” and the “IC50 values for M-2 formation, UGT1A3 compared with HLMs” value (UGT1A3; glycyrrhetinic acid 0–60 μM, UGT1A3 and HLMs) is reported as “equal”.
For hecogenin, the “inhibition of the 3-O-glucuronidation of DACB” value (UGT1A4) was “significantly inhibit” and the “IC50 values for M-1 formation, UGT1A4 compared with HLMs” value (UGT1A4; hecogenin 1–80 μM, UGT1A4 and HLMs) was “similar”.
